Molecular target: unphosphorylated-BTK kinase domain (UP-BTK), GST-tagged human BTK (389-659aa) (Homo sapiens (Human), UniProt Q06187)
Assay: BTK Kinase Lanthascreen Binding Assay
Settings: for BTK_I_binding pIC50: pIC50 = negative log of the IC50 in molar
Experimental: BTK Kinase Lanthascreen Binding Assay:
A BTK kinase lanthascreen binding assay monitors compound binding to unphosphorylated-BTK kinase domain (UP-BTK), by competing with a fluorescent labeled tracer. […] Data were analyzed using Xlfit™ version 5.3 from ID Business Solutions (Guildford), Microsoft Excel add-in. pIC50 refers to the negative log of the IC50 in molar.

[1] = compound, 50 nM Tracer 236, 2 nM anti-GST antibody, 60 minutes
[2] = Lanthascreen binding, 60 minutes incubation

unphosphorylated-BTK kinase domain (UP-BTK), GST-tagged human BTK (389-659aa), sequence (Q06187 389-659): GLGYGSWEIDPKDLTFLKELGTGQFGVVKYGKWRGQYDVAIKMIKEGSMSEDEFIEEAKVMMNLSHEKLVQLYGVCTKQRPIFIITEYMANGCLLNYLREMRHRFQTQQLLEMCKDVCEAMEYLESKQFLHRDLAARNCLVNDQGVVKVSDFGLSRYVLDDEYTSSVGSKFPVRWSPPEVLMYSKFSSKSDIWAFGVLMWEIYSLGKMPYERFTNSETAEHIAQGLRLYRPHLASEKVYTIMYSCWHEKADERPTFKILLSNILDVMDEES

Row | Compound | BTK_I_binding pIC50 [1] | BTK_I_binding pIC50 [2] | further results
1 | C=CC(=O)N[C@@H]1CCC[C@@H](NC(=O)c2sc3nccc4c3c2NC(=O)N4c2ccc(Oc3ccccc3)cc2C)C1 (single isomer, unassigned) [Example 182, N-((1R,3R)-3-Acrylamidocyclohexyl)-5-(*S)-(2-methyl-4-phenoxyphenyl)-4-oxo-4,5-dihydro-3H-1-thia-3,5,8-triazaacenaphthylene-2-carboxamide] | 7.66 |  | 
2 | C=CC(=O)N[C@@H]1CCCC[C@H]1NC(=O)c1sc2nccc3c2c1NC(=O)N3c1ccc(Oc2ccccc2)cc1C (single isomer, unassigned) [Example 439, N-((1R,2R)-2-Acrylamidocyclohexyl)-5-(*S)-(2-methyl-4-phenoxyphenyl)-4-oxo-4,5-dihydro-3H-1-thia-3,5,8-triazaacenaphthylene-2-carboxamide] |  | 7.53 | 
3 | C=CC(=O)N[C@@H]1CC[C@H](NC(=O)c2sc3nccc4c3c2NC(=O)N4c2ccc(Oc3ccccc3)cc2)C1 [Example 117, N-((1S,3R)-3-Acrylamidocyclopentyl)-4-oxo-5-(4-phenoxyphenyl)-4,5-dihydro-3H-1-thia-3,5,8-triazaacenaphthylene-2-carboxamide] |  |  | IC50 (read-out: BTK_I_binding pIC50 (converted)): 15.8 nM
4 | C=CC(=O)N[C@H]1CCCC[C@H]1NC(=O)c1sc2nccc3c2c1NC(=O)N3c1cnc(Oc2ccccc2)cn1 [Example 295, N-((1R,2S)-2-Acrylamidocyclohexyl)-4-oxo-5-(5-phenoxypyrazin-2-yl)-4,5-dihydro-3H-1-thia-3,5,8-triazaacenaphthylene-2-carboxamide] |  | 8.39 | 
5 | C=CC(=O)N[C@@H]1CCC[C@@H]1NC(=O)c1sc2nccc3c2c1NC(=O)N3c1ccc(Oc2ccccc2)cc1 [Example 127, N-((1S,2R)-2-Acrylamidocyclopentyl)-4-oxo-5-(4-phenoxyphenyl)-4,5-dihydro-3H-1-thia-3,5,8-triazaacenaphthylene-2-carboxamide] | 6.56 |  | 
6 | Cc1nc(Oc2ccccc2)ccc1N1C(=O)Nc2c(C(=O)N[C@@H]3CCC[C@@H]3N)sc3nccc1c23 (single isomer, unassigned) [Example 318, N-((1*R,2*S)-2-Aminocyclopentyl)-5-(*S)-(2-methyl-6-phenoxypyridin-3-yl)-4-oxo-4,5-dihydro-3H-1-thia-3,5,8-triazaacenaphthylene-2-carboxamide] |  | 6.46 | 
7 | C=CC(=O)N[C@H]1CCC[C@H]1NC(=O)c1sc2nccc3c2c1NC(=O)N3c1cc(-c2ccccc2)ccn1 [Example 189, N-((1R,2S)-2-Acrylamidocyclopentyl)-4-oxo-5-(4-phenylpyridin-2-yl)-4,5-dihydro-3H-1-thia-3,5,8-triazaacenaphthylene-2-carboxamide] | 8.23 |  | 
8 | CC(=O)N[C@@H]1CCCC[C@H]1NC(=O)c1sc2nccc3c2c1NC(=O)N3c1ccc(Oc2ccccc2)cc1C [Example 47, N-((1R,2R)-2-Acetamidocyclohexyl)-5-(2-methyl-4-phenoxyphenyl)-4-oxo-4,5-dihydro-3H-1-thia-3,5,8-triazaacenaphthylene-2-carboxamide] | 6.12 |  | 
9 | Cc1cc(Oc2ccccc2)ccc1N1C(=O)Nc2c(C(=O)N[C@H]3CCCC[C@H]3NC(=O)CN(C)C)sc3nccc1c23 (single isomer, unassigned) [Example 449, N-((1S,2R)-2-(2-(Dimethylamino)acetamido)cyclohexyl)-5-(*S)-(2-methyl-4-phenoxyphenyl)-4-oxo-4,5-dihydro-3H-1-thia-3,5,8-triazaacenaphthylene-2-carboxamide] |  | 6.51 | 
10 | Cc1cc(Oc2ccccc2)ccc1N1C(=O)Nc2c(C(=O)N[C@H]3CCCC[C@@H]3N(C)C)sc3nccc1c23 [Example 62, N-((1S,2S)-2-(Dimethylamino)cyclohexyl)-5-(2-methyl-4-phenoxyphenyl)-4-oxo-4,5-dihydro-3H-1-thia-3,5,8-triazaacenaphthylene-2-carboxamide] | 5.29 |  | 

— patent US10934310B2, “Inhibitors of Bruton's tyrosine kinase and method of their use” (JANSSEN PHARMACEUTICA NV, priority 2015, dated 2021)
